Assay results: article PMC6187632, “A glutaredoxin domain fused to the radical-generating subunit of ribonucleotide reductase (RNR) functions as an efficient RNR reductant” (The Journal of Biological Chemistry, 2018)

Columns and labels:
[1] = molecular target: Facklamia ignava NrdBΔGrx (NrdB lacking the Grx domain) (Facklamia ignava); assay: GEMMA (gas-phase electrophoretic macromolecule analysis); NrdB deletion proteins analysed with and without 50 uM dATP (the text does not tell the two conditions apart); 20 mM ammonium acetate pH 7.8, 1 mM DTT, 0.005% Tween 20; step: dimers to tetramer
[2] = molecular target: T1, F. ignava RNR holoenzyme (NrdA + NrdB) (Falseniella ignava, UniProt K1LAT4); assay: RNR activity (dGDP formation by HPLC); format: biochemical
T1 construct: gene HMPREF9707_01368; E. coli BL21(DE3); active complex alpha2beta2; with Ribonucleoside-diphosphate reductase subunit alpha
T1 sequence (K1LAT4 1-496): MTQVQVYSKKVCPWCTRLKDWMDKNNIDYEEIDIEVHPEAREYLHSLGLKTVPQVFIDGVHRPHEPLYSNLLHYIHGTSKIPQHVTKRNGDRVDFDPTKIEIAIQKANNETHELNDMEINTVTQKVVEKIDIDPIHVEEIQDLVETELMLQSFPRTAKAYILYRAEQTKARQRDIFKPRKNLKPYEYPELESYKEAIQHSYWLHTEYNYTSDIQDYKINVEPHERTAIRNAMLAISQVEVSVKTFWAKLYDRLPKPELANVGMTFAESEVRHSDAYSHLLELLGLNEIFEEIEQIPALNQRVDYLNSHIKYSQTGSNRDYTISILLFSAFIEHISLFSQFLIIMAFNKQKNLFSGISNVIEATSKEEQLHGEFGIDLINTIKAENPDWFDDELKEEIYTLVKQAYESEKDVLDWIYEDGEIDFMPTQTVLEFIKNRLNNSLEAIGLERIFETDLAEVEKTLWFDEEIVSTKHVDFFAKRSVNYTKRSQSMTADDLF
T1 sequence (K1MC37 1-567 partner): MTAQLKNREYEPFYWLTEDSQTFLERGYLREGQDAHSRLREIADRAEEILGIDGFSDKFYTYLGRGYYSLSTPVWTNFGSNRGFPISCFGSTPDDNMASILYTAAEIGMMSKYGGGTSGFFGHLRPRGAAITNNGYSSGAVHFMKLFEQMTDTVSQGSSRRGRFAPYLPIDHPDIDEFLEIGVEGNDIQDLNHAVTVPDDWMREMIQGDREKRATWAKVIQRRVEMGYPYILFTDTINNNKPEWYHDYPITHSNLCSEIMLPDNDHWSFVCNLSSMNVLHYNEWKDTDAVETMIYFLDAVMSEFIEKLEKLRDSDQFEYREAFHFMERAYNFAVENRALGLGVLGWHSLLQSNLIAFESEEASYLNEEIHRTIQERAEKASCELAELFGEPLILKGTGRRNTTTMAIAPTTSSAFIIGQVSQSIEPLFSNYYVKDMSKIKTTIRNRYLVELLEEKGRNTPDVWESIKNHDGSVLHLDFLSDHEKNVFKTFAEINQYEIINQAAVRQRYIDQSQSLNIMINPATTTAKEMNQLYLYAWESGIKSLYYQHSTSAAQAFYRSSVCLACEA

[3] = molecular target: T2, heterologous F. ignava NrdA/L. blandensis NrdB holoenzyme (Leeuwenhoekiella blandensis, UniProt A3XHF9); assay: RNR activity (dGDP formation by HPLC); format: biochemical; conditions: GDP substrate, 2 mM dTTP, pH 8, room temperature; allosteric inhibition via L. blandensis NrdB ATP cone
T2 construct: gene MED217_17135; mixed-species complex; F. ignava NrdA His6-tagged, E. coli; with Ribonucleoside-diphosphate reductase subunit alpha (Falseniella ignava CCUG 37419)
T2 sequence (A3XHF9 1-427): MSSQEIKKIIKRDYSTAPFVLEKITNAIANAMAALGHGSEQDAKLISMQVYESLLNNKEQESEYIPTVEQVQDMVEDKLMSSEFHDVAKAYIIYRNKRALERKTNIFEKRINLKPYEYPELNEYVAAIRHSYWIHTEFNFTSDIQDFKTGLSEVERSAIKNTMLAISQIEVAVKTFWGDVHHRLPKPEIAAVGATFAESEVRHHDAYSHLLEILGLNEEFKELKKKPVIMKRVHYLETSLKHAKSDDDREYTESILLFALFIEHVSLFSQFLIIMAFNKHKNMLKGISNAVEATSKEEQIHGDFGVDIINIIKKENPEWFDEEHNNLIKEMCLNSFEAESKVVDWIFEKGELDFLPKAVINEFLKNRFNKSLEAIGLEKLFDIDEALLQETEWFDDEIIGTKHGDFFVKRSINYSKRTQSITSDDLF
T2 sequence (K1MC37 1-567 partner): T1 sequence (K1MC37 1-567 partner)

[4] = molecular target: T3, F. ignava NrdB (Grx::NrdB fusion protein, NrdBi) (Falseniella ignava, UniProt K1LAT4); assay: biochemical; format: binding
T3 construct: gene HMPREF9707_01368; full-length 496-residue fusion (Grx 4-61, ATP cone 84-169, NrdB core); E. coli BL21(DE3); dimer-tetramer equilibrium

[5] = molecular target: T1, F. ignava RNR holoenzyme (NrdA + NrdB); assay: RNR activity; format: biochemical; conditions: weaker inhibition than dATP; ATP cone of NrdB
[6] = molecular target: T3, F. ignava NrdB (Grx::NrdB fusion protein, NrdBi); assay: glutaredoxin activity, NADPH consumption at […] nm (GSH reductase coupled); format: biochemical; conditions: 4 mM GSH, 0.4 mM NADPH, pH 8.0, room temperature; Grx domain; artificial substrate
[7] = molecular target: T4, F. ignava NrdB (Grx::NrdB fusion protein, NrdBi) (Falseniella ignava, UniProt K1LAT4, C15S); assay: as above; format: biochemical; conditions: 4 mM GSH, 0.4 mM NADPH, pH 8.0, room temperature; Grx domain, monothiol mechanism
T4 construct: gene HMPREF9707_01368; full-length 496-residue fusion (Grx 4-61, ATP cone 84-169, NrdB core); E. coli BL21(DE3); dimer-tetramer equilibrium

[8] = molecular target: the molecule itself; assay: SEC; Superdex 200 10/300, no effector; 50 mM KCl, 10 mM MgCl2, 0.1 mM DTT, 50 mM Tris-HCl pH 7.6, room temperature; NrdA 5 and 10 uM, NrdB 1.25-10 uM, mixture 10 uM of each
[9] = molecular target: the molecule itself; assay: GEMMA (gas-phase electrophoretic macromolecule analysis); no effector; 0.05 mg/ml protein (0.025 mg/ml of each in mixtures), 20 mM ammonium acetate pH 7.8, 1 mM DTT, 0.005% Tween 20, room temperature
[10] = molecular target: the molecule itself; assay: SEC; Superdex 200 10/300, 0.1 mM dATP in the mobile phase; 50 mM KCl, 10 mM MgCl2, 0.1 mM DTT, 50 mM Tris-HCl pH 7.6, room temperature; single subunits 5 and 10 uM, mixture 10 and 20 uM of each

Molecule: Facklamia ignava NrdBΔGrx (NrdB lacking the Grx domain) (domain or fragment)
- stoichiometry N [1]: 4

Molecule: Nc1ncnc2c1ncn2[C@H]1C[C@H](O)[C@@H](COP(=O)(O)OP(=O)(O)OP(=O)(O)O)O1 [dATP]
- Ki [2]: 1.3 ± 0.23 µM
- Ki [3]: ~70 µM
- Kd [4]: 0.4 µM

Molecule: Nc1ncnc2c1ncn2[C@H]1C[C@H](O)[C@@H](COP(=O)(O)OP(=O)(O)O)O1 [dADP]
- RNR activity [5]: Titration with dADP inhibited the WT enzyme activity (Fig. S2)
- Kd [4]: 5.8 µM

Molecule: Nc1ncnc2c1ncn2[C@@H]1O[C@H](COP(=O)(O)OP(=O)(O)OP(=O)(O)O)[C@@H](O)[C@H]1O [ATP]
- Kd [4]: 6.8 µM

Molecule: OCCSSCCO [2-hydroxyethyl disulfide]
- Km [6]: 600 ± 90 µM
- Km [7]: 1300 ± 240 µM

B1: Facklamia ignava NrdA (NrdAi) (enzyme, UniProt K1MC37 1-567, looked up)
chain: T1 sequence (K1MC37 1-567 partner)
notes: NrdA (NrdAi), catalytic subunit of the class I ribonucleotide reductase of Facklamia ignava CCUG 37419; amplified from genomic DNA with primers from the start ATG to the stop codon; a thrombin cleavage site follows the His6 tag; the form rests on the printed primers (ATG to stop); source: E. coli BL21(DE3), pET-28a(+), purified (HisTrap nickel-Sepharose, Superdex 200, phenyl-Sepharose)
- stoichiometry N [8]: 2

B2: Facklamia ignava NrdB (Grx::ATP-cone::NrdB fusion protein, NrdBi) (enzyme, UniProt K1LAT4 1-496, looked up)
chain: T1 sequence (K1LAT4 1-496)
notes: NrdB (NrdBi) of Facklamia ignava CCUG 37419, 496 residues: Grx domain (residues 4-61), ATP cone (residues 84-169), then the NrdB proper; amplified from genomic DNA with primers from the start ATG to the stop codon; a thrombin cleavage site follows the His6 tag; Expressed with 0.5 mM MnSO4; holds a Mn(III)/Mn(IV) cofactor; Dimer or tetramer by condition; also called WT NrdB; source: E. coli …
- stoichiometry N [9]: 2
- stoichiometry N [10]: 4
